# Legend:
# [1] = Binding affinity was measured on Sigma receptor type 2 using [3H]- DTG as radioligand
# [2] = Binding affinity was measured on Sigma receptor type 1 using [3H]- pentazocine as radioligand
# [3] = as above; remark: listed apart in the source
# [4] = target: Sigma non-opioid intracellular receptor 1 (Homo sapiens, UniProt Q99720); assay: Binding affinity was measured on Sigma receptor type 1 using [3H]- pentazocine as radioligand
# Sigma non-opioid intracellular receptor 1, sequence (Q99720 whole entry): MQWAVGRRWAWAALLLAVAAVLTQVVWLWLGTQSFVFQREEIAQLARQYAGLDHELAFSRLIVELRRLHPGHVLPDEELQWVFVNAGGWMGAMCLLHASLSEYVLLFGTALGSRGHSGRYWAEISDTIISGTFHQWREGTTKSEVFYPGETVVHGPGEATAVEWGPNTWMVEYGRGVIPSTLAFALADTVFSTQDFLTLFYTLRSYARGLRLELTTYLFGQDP
SMILES,Ki [1],Ki [2],Ki [3],Ki [4]
"CC1C2Cc3cc(Br)c(O)c(Br)c3C1(C)CCN2Cc1ccccc1 (stereo not given) [3-Benzyl-7,9-dibromo-6,11-dimethyl-1,2,3,4,5,6-hexahydro-2,6-methano-benzo[d]azocin-8-ol]",2.01 µM,0.0706 µM,–,–
"CC1C2Cc3ccc(O)c(Cl)c3C1(C)CCN2Cc1ccccc1 (stereo not given) [3-Benzyl-7-chloro-6,11-dimethyl-1,2,3,4,5,6-hexahydro-2,6-methano-benzo[d]azocin-8-ol]",0.764 µM,–,0.00172 µM,–
"CC(C)=CCN1CCC2(C)c3c(cc(Br)c(O)c3Br)CC1C2C (stereo not given) [7,9-Dibromo-6,11-dimethyl-3-(3-methyl-but-2-enyl)-1,2,3,4,5,6-hexahydro-2,6-methano-benzo[d]azocin-8-ol]",0.211 µM,–,0.12 µM,–
"CC(C)=CCN1CCC2(C)c3c(ccc(O)c3Br)CC1C2C (stereo not given) [7-Bromo-6,11-dimethyl-3-(3-methyl-but-2-enyl)-1,2,3,4,5,6-hexahydro-2,6-methano-benzo[d]azocin-8-ol]",0.283 µM,–,0.00249 µM,–
"CC(C)=CCN1CCC2(C)c3cc(O)c(Br)cc3CC1C2C (stereo not given) [9-Bromo-6,11-dimethyl-3-(3-methyl-but-2-enyl)-1,2,3,4,5,6-hexahydro-2,6-methano-benzo[d]azocin-8-ol]",–,–,–,0.144 µM
"CC1C2Cc3ccc(O)c(Br)c3C1(C)CCN2Cc1ccccc1 (stereo not given) [3-Benzyl-7-bromo-6,11-dimethyl-1,2,3,4,5,6-hexahydro-2,6-methano-benzo[d]azocin-8-ol]",0.346 µM,–,0.00175 µM,–
"CC1C2Cc3cc(I)c(O)cc3C1(C)CCN2Cc1ccccc1 (stereo not given) [3-Benzyl-9-iodo-6,11-dimethyl-1,2,3,4,5,6-hexahydro-2,6-methano-benzo[d]azocin-8-ol]",0.597 µM,–,0.231 µM,–
"CC1C2Cc3cc(Cl)c(O)c(Cl)c3C1(C)CCN2Cc1ccccc1 (stereo not given) [3-Benzyl-7,9-dichloro-6,11-dimethyl-1,2,3,4,5,6-hexahydro-2,6-methano-benzo[d]azocin-8-ol]",2.17 µM,–,0.0715 µM,–
"CC(C)=CCN1CCC2(C)c3c(ccc(O)c3Cl)CC1C2C (stereo not given) [7-Chloro-6,11-dimethyl-3-(3-methyl-but-2-enyl)-1,2,3,4,5,6-hexahydro-2,6-methano-benzo[d]azocin-8-ol]",4.96 µM,–,0.00262 µM,–
"CC1C2Cc3cc(Br)c(O)cc3C1(C)CCN2Cc1ccccc1 (stereo not given) [3-Benzyl-9-bromo-6,11-dimethyl-1,2,3,4,5,6-hexahydro-2,6-methano-benzo[d]azocin-8-ol]",1.22 µM,–,0.0686 µM,–
"CC(C)=CCN1CCC2(C)c3cc(O)c(I)cc3CC1C2C (stereo not given) [9-Iodo-6,11-dimethyl-3-(3-methyl-but-2-enyl)-1,2,3,4,5,6-hexahydro-2,6-methano-benzo[d]azocin-8-ol]",–,–,–,0.0352 µM
